The NIST ThermoML archive (doi:10.1016/j.tca.2014.03.033)

Assay: molar heat capacity at constant pressure
Conditions: 101.33 kPa, Crystal, Vacuum adiabatic calorimetry

O=P([O-])([O-])[O-].O=P([O-])([O-])[O-].O=P([O-])([O-])[O-].[K+].[Th+4].[Th+4] [potassium dithorium trisphosphate]
Conditions	molar heat capacity at constant pressure [J/K/mol]
4 K	0.316
5 K	0.395
6 K	0.4889
7 K	0.5352
8 K	0.4432
9 K	0.3222
10 K	0.3252
15 K	2.606
20 K	6.715
25 K	12.67
30 K	19.97
35 K	28.47
40 K	37.38
45 K	46.43
50 K	56.01
60 K	73.35
70 K	91.89
80 K	109.4
90 K	125.4
100 K	140
110 K	153.5
120 K	166.2
130 K	178
140 K	189.2
150 K	199.8
160 K	209.9
170 K	219.6
180 K	229
190 K	238.2
200 K	247.3
210 K	256
220 K	264.2
230 K	271.8
240 K	278.6
250 K	284.7
260 K	290.3
270 K	295.7
273.15 K	297.5
280 K	301.3
290 K	307.4
